Entries after “also recorded” stand apart in the source; their conditions may differ. Read-outs that look alike come from different tables or passages of the source.
Experiments:
[1] = tested on: PTZ-induced seizures (seizure threshold); test: timed intravenous PTZ seizure threshold test; assay type: in vivo, mice; conditions: for elevation in thresholds to the three seizure endpoints: intranasal 1 mg/kg, compared with allopregnanolone 16 mg/kg; for effect on seizure threshold parameters: Example 2
Method: (§1) The thresholds for various behavioral seizure stages induced by the PTZ and bicuculine were determined by infusing the convulsant drugs via a 27-gauge, 0.75-inch “butterfly” needle inserted into the lateral tail vein. PTZ (10 mg/ml) and bicuculline (0.1 mg/ml) were infused IV at a constant rate of 0.5 ml/min using a 5-ml syringe (BD Biosciences, Franklin Lakes, N.J.) mounted on an infusion pump (Model ‘11’ Plus Syringe Pump; Harvard Apparatus, Holliston, Mass.). The syringe was connected to the needle by polyethylene tubing. The infusion was stopped at 3 min or at the onset of tonic extension, whichever occurred first. The time to occurrence (“infusion duration”) to the following endpoints from the start of the convulsant infusion were determined: (1) the first myoclonic jerk; (2) the onset of generalized clonus; and (3) the onset of tonic extension. Infusion duration values represent the time from the start of the convulsant infusion to the onset of the endpoint. The threshold value (mg/kg) for each endpoint was determined according to the following formula: (infusion duration [s]×infusion rate [ml/min]×convulant concentration [10 mg/ml or 0.1 mg/ml]×1000)/(60 s×body weight of mouse [g]).

motor function of mice = test: horizontal screen test (motor impairment); assay type: in vivo; conditions: for animals that fell from the grid: intranasal 1 mg/kg; for motor function in the horizontal screen test, in words: intranasal, doses with comparable antiseizure activity
Method: At various times after intranasal administration, mice were placed on a horizontally oriented grid (consisting of parallel 1.5-mm diameter rods situated 1 cm apart) for 2-3 s and the grid was inverted and held approximately 30-40 cm above a padded surface for a maximum of 60 s. If the animal fell from the grid, the latency from the time of inversion to the time of fall was recorded.

[2] = intranasal; cited from earlier work
[3] = even when solubilized with sulfobutyl ether β-cyclodextrin, sodium salt; cited from earlier work
[4] = brain region pharmacokinetics after intranasal dosing
righting reflex of mice = test: loss of righting reflex test; assay type: in vivo; conditions: for loss of righting reflex (sedation), in words: 10 min to 30 min after administration
Method: Time course of loss of righting reflex following intranasal allopregnanolone (16 mg/kg) and intramuscular allopregnanolone (16 mg/kg). Loss of righting reflex is a nonnoxious behavioral paradigm that indicates loss of consciousness (hypnosis). […] Intranasal delivery of alloprepregnanolone according to the methods described herein avoids the adverse effects on behavior associated with intramuscular bolus administration.
For the test, the mouse was placed on its back on a tabletop.

[5] = cited from earlier work
[6] = human; cited from earlier work
PTZ-induced seizures = test: maximal PTZ seizure test; assay type: in vivo, mice
Method: Solutions of allopregnanolone (5α,3α-P) (15 mg/ml) were prepared in 40% sulfobutylether-β-cyclodextrin sodium salt in 0.9% saline. Seizures were induced in mice with pentylenetetrazol (PTZ; […] IP). 5α,3α-P solution (6 and 10 mg/kg) or vehicle was administered intranasally 5, 10 and 15 min prior to administration of the PTZ. […] The times to onset of myoclonic body twitches and clonic and tonic seizures were recorded. 5α,3α-P was considered to have antiseizure activity if it delayed the onset of seizure signs in comparison with the time of their occurrence in vehicle-treated animals.
The times to occurrence of the 3 seizure signs as in the timed intravenous PTZ seizure test were recorded. Allopregnanolone (10 mg/kg) or vehicle was administered intranasally 10 min prior to the PTZ injection.

[7] = plasma pharmacokinetics after intranasal or intramuscular dosing
Method: Allopregnanolone (16 mg/mL in 40% Captisol® in 0.9% saline) was administered intranasally at a total dose of 10 mg/kg. 2-3 microliters of solution was administered 3-5 times to each nostril (6-10 times total) over a period of 3.5 min. Allopregnanolone (6 mg/mL in 24% Captisol® in 0.9% saline) was administered intramuscularly at a total dose of 12 mg/kg. Time course of plasma levels of allopregnanolone following intranasal allopregnanolone (10 mg/kg) and intramuscular allopregnanolone (12 mg/kg) was monitored. At various times after administration, trunk blood was collected in chilled heparinized tubes. In some cases, blood was collected by retro-orbital puncture. Plasma was separated and assayed for allopregnanolone as described in Zolkowska D. et al., Epilepsia 2018 October; 59 Suppl 2:220-227.
At various times after intranasal administration, trunk blood samples were collected into chilled tubes. Brains were removed, separated into 3 sections (olfactory bulb, forebrain with midbrain, cerebellum with attached pons and medulla) and fast-frozen on dry ice. Blood was centrifuged at 1500 RCF for 10 min to separate the plasma. Brain and plasma samples were stored at −80° C. until processing. Plasma and brain samples were analyzed for allopregnanolone as described in Zolkowska et al (2018). The lower limit of quantification in plasma is 2.5 ng/ml.

[8] = tested on: bicuculline-induced seizures (seizure threshold); test: intravenous bicuculline threshold test; assay type: in vivo, mice; conditions: intranasal 16 mg/kg; 10 min
Method: as §1

[9] = intranasal 16 mg/kg, 10 min after dosing
[10] = mouse, olfactory bulb, inhaled or intranasal, 10 mg/kg
[11] = intranasal 10 mg/kg, 10 min before PTZ 80 mg/kg IP
[12] = mouse, plasma, inhaled or intranasal, 10 mg/kg

With `CN1C(=O)CN=C(c2ccccc2)c2cc(Cl)ccc21` [diazepam] the “elevation in thresholds to the three seizure endpoints” value [1] was “comparable elevations”, the “animals that fell from the grid” value (motor function of mice) was “all” and the “motor function in the horizontal screen test, in words” value (“motor function” below) (motor function of mice) was “dramatically impair motor function”.

For `CCC(=O)O[C@]1(C(=O)SCF)[C@H](C)C[C@H]2[C@@H]3C[C@H](F)C4=CC(=O)C=C[C@]4(C)[C@@]3(F)[C@@H](O)C[C@@]21C` [fluticasone propionate], the systemic availability [2] is listed as “negligible”.

In the case of `CC(=O)[C@H]1CC[C@H]2[C@@H]3CC[C@H]4C[C@H](O)CC[C@]4(C)[C@H]3CC[C@]12C` [allopregnanolone, 3α-hydroxy-5α-pregnan-20-one], the “effect on seizure threshold parameters” value ([1]; intranasal 16 mg/kg, 10 minutes) is reported as “large and statistically significant increase”, the “effect on seizure threshold parameters” value ([1]; intranasal 16 mg/kg, 1 hour) is reported as “diminishes” and the “effect on seizure threshold parameters” value ([1]; intranasal 16 mg/kg, 8 hours) is reported as “absent; also recorded: no substantial elevation”. The “change in tonic extension threshold versus vehicle” value ([1]; intranasal 16 mg/kg, 10 min) was “statistically significant increase”, the “ratio of mean threshold values, drug to vehicle: clonus” value [1, 9] was 1.4 and the “ratio of mean threshold values, drug to vehicle: myoclonic twitch” value [1, 9] was 1.3. The “ratio of mean threshold values, drug to vehicle: tonic extension” value [1, 9] was 2.7, the “ratio of mean thresholds, drug to vehicle: tonic extension” value (from here on “ratio of mean thresholds, drug”) ([1]; intranasal 16 mg/kg, 15 min (maximum elevation)) was 5.3 and the “ratio of mean thresholds, drug” value ([1]; intranasal 16 mg/kg, 60 min) was 1.3. For the same compound, the “ratio of mean thresholds, drug” value ([1]; intranasal 16 mg/kg, 360 min) was 1.1, the oral bioavailability [3] was “not orally bioavailable” and the “olfactory bulb levels compared with plasma levels” value ([4]; intranasal) was “substantially higher than the plasma levels”. The “olfactory bulb concentration relative to whole brain” value ([4]; intranasal 16 mg/kg, mean of 1, 2, 5 and 10 min) was 10 fold, the Cmax ([4]; mouse, forebrain, cerebellum, inhaled or intranasal, 10 mg/kg) was 600 to 700 ng/g and the Cmax [4, 10] was 16000 ng/g. The Tmax [4, 10] was 1 min, the “animals exhibiting loss of righting reflex” value (righting reflex of mice; intramuscular 16 mg/kg) was 9 of 10 and the “loss of righting reflex (sedation), in words” value (righting reflex of mice; intramuscular 16 mg/kg) was “substantial loss of righting reflex; also recorded: profound sedation”. For the same compound, the “loss of righting reflex (sedation), in words” value (righting reflex of mice; intramuscular 16 mg/kg, listed as Allopregnanolone) was “loss of righting reflex in a high proportion of mice”, the “loss of righting reflex (sedation/general anesthesia), in words” value (righting reflex of mice; intranasal 16 mg/kg) was “not associated with substantial sedation/general anesthesia; also recorded: only minimal loss of righting reflex” and the “animals exhibiting loss of righting reflex” value (righting reflex of mice; intranasal 16 mg/kg, 60 min observation) was 2 of 25. For the same compound, the “loss of righting reflex (sedation/general anesthesia), in words” value (righting reflex of mice; intranasal 16 mg/kg, listed as Allopregnanolone) was “loss of righting reflex in only a small proportion of animal”, the “dose adjusted Cmax” value ([5]; intramuscular, prior study) was 2150 ng/mL and the Tmax ([5]; intramuscular) was 60 min. For the same compound, the “plasma concentration half-time (t1/2)” value ([5]; mice) was 16 min, the “animals that did not fall from the grid” value (motor function of mice; intranasal 16 mg/kg) was 5 of 8 and the “area under mean holding time versus time curve, compared with untreated (naive) animals” value (motor function of mice; intranasal 16 mg/kg) was “not significantly different”. For the same compound, the “motor function” value (motor function of mice) was “fails to cause substantial sedation or motor impairment”, the t1/2 [6] was 35 min and the “delay in seizure signs” value (PTZ-induced seizures; Example 1, administered 15 min before PTZ, compared with 5 min) was “less active”. The “effect on time to onset of seizure signs” value (PTZ-induced seizures; Example 1, intranasal 6 mg/kg) was “delayed the time to onset of all seizure signs”, the “protection from tonic hind limb extension and mortality” value (PTZ-induced seizures; Example 1, intranasal 10 mg/kg) was “some animals were protected” and the “ratio of latencies, drug to vehicle: clonus” value (PTZ-induced seizures; [11]) was 1.5. For the same compound, the “ratio of latencies, drug to vehicle: myoclonic twitch” value (PTZ-induced seizures; [11]) was 1.3, the “ratio of latencies, drug to vehicle: tonic extension” value (PTZ-induced seizures; [11]) was 4.4 and the “animals that failed to exhibit tonic extension” value (PTZ-induced seizures; intranasal 10 mg/kg, of the 14 animals tested) was 5. The “time therapeutic levels are maintained” value ([7]; intramuscular) was “about 2 hours”, the “time by which plasma levels taper off” value ([7]; intramuscular 12 mg/kg) was “about 4 hours” and the “time therapeutically meaningful blood levels are maintained” value ([7]; intranasal) was “up to 8 hours”. The “time plasma levels are sustained” value ([7]; intranasal 10 mg/kg) was “up to 8 hours”, the “true Cmax (time)” value ([7]; intranasal 10 mg/kg, likely value) was under 5 min and the Cmax [7, 12] was 3500 ng/mL. It also gave a Tmax [7, 12] of 1 min, a half-life ([7]; mouse, plasma, inhaled or intranasal, 10 mg/kg, plasma initial phase t1/2, intranasal 10 mg/kg, first 15 min) of 4.9 min and a half-life ([7]; mouse, plasma, inhaled or intranasal, 10 mg/kg, plasma t1/2 (overall curve), intranasal 10 mg/kg) of 49 min. The “ratio of threshold, drug to vehicle: tonic extension” value [8] was 1.5.

For `CC1(C)O[C@@H]2C[C@H]3[C@@H]4C[C@H](F)C5=CC(=O)C=C[C@]5(C)[C@H]4[C@@H](O)C[C@]3(C)[C@]2(C(=O)CO)O1` [flunisolide], the systemic availability [2] is given as “substantial”.

For `Cc1ncc2n1-c1ccc(Cl)cc1C(c1ccccc1F)=NC2` [midazolam], the “elevation in thresholds to the three seizure endpoints” value [1] was “comparable elevations”, the “animals that fell from the grid” value (motor function of mice) was “all” and the “motor function” value (motor function of mice) was “dramatically impair motor function”.

Source: US20220202832A1, “ALLOPREGNANOLONE COMPOSITIONS AND USES THEREOF” (The Regents of the University of California, priority 2019, published 2022)
